Assays:
Type in all cases: cell-based, human
BMLF1-specific CD8+ CTLs = assay: Induction of BMLF1-specific CD8+ CTLs by dendritic cells co-pulsed with ZOMETA and BMLF1; conditions: for The number of CTLs / The total number of cells / Ratio of CTLs (%): BMLF1 2 μg/ml; for Ratio of CTLs (%): immature dendritic cells, 7 days
Experimental: (§1) As a negative control, dendritic cells that were cultured without adding ZOMETA™ or the antigenic peptides were used.
After about 12 hours of the culture, part of the activated dendritic cells that were co-pulsed with ZOMETA™ and the antigenic peptides were collected, placed in a 15 ml tube (BD Falcon) and centrifuged at 1500 rpm for 5 minutes. The resultant dendritic cells in the form of pellets were suspended in 10 ml of an AIM-V medium supplemented with 10% FBS and centrifuged at 1500 rpm for 5 minutes, followed by washing. The washing operation was repeated twice. The dendritic cells collected in this manner were used as stimulating cells. In other words, the activated dendritic cells that were co-pulsed with bisphosphonate and the disease antigenic peptides, the dendritic cells that were pulsed with either of them and the dendritic cells that were not pulsed with any of them were used as stimulating cells. Cells prepared by suspending those (a CD14-negative cell population, which was mainly a T cell population) remaining after isolation of the CD14-positive cells for preparing the dendritic cells in an AIM-V medium supplemented with 10% FBS and 10% dimethyl sulfoxide (DMSO), and freeze-preserving them were thawed, washed and used as responding cells. 1×10^5 each of the obtained stimulating cells (dendritic cells) were cultured with 1×10^6 responding cells such that the total amount was 1 ml in a 48-well plate (CORNING) (responding cells:dendritic cells=10:1). The co-culture was carried out at about 37° C. under a condition of 5% CO2 for 7 days. […] In the case where the cells were proliferated rapidly, 1 ml of an AIM-V medium supplemented with 40 U/ml of IL-2 and 10% FBS was added on day 4 to day 6.
After dyeing in a shielded state at room temperature for 15 minutes, an anti-CD8 antibody that was labeled with FITC (BD Pharmingen) was added, followed by dyeing in a shielded state at 4° C. for 15 minutes. As a control, an isotype of each of the antibodies was used. The cells were measured using EPICS XL.MCL, and the results of measurement were analyzed using EPICS 32.

A27L-specific CD8+ CTLs [1] = assay: Induction of A27L-specific CD8+ CTLs by artificial antigen-presenting cells MDA-MB/CD80 co-pulsed with ZOMETA and A27L; conditions: co-pulse 0.01 μM or 1 μM ZOMETA and 2 μg/ml A27L
Experimental: A human CD80 gene, which was a co-stimulatory molecule, was transfected by a lipofection method in a breast cancer-derived cell line: MDA-MB-231 (class I antigen HLA-A*0201) expressing MHC class I molecules, thus establishing a cell line MDA-MB/CD80 expressing human CD80 stably and constantly in MDA-MB-231 cells.
As a negative control, MDA-MB/CD80 cells that were cultured without adding ZOMETA™ or the antigenic peptides were used.
After about 12 hours of culture, part of the activated MDA-MB/CD80 cells that were co-pulsed with ZOMETA™ and the antigenic peptides were collected, placed in a 15 ml tube (BD Falcon) and centrifuged at 1500 rpm for 5 minutes. The resultant MDA-MB/CD80 cells in the form of pellets were suspended in 10 ml of an AIM-V medium supplemented with 10% FBS and centrifuged at 1500 rpm for 5 minutes, followed by washing. The washing operation was repeated twice. The MDA-MB/CD80 cells collected in this manner were used as stimulating cells. In other words, the activated MDA-MB/CD80 cells that were co-pulsed with bisphosphonate and the disease antigenic peptides, the MDA-MB/CD80 cells that were pulsed with either of them and the MDA-MB/CD80 cells that were not pulsed with any of them were used as stimulating cells. […]

IFN-γ producing cells = assay: IFN-γ ELISPot of co-cultured immunocytes
Experimental: 70% ethanol was added to each well of MultiScreen plate (MILLIPORE) and removed within 2 minutes. Each well of the above-noted plate was washed five times in 200 μl of PBS. […] This plate was left overnight at 4° C. This plate was washed four times in 200 μl/well of PBS. Then, 200 μl of an AIM-V medium supplemented with 10% FBS was added in each well, followed by blocking at room temperature for at least 30 minutes. The blocking medium was removed, and the plate was washed four times in 200 μl/well of PBS. A co-cultured cell population in each condition obtained by a method similar to the above-described co-culture was collected by centrifugation and washed twice in AIM-V.
The number of cells indicates the number per well of an assay plate. […] The culture volume was adjusted to be 100 μl per well. For each culture condition, 300 μl of culture, which corresponds to 3 wells, was performed. 100 μl per well of the cells pre-cultured under each condition was added into 3 wells in the plate that had been washed in PBS after blocking, and cultured overnight at 37° C. under a condition of 5% CO2. The cultured cells were removed from the wells and washed five times in 200 μl/well of PBS. […] The plate was allowed to stand still at room temperature for 2 hours. This plate was washed five times in 200 μl/well of PBS. Streptavidin to which alkaline phosphatase was bound (MABTECH ELISPot™ for Human Interferon-γ kit) was diluted with PBS supplemented with 0.5% FBS so that 1:1000, and 100 μl thereof per well was added. The plate was left at room temperature for 1 hour. This plate was washed five times in 200 μl/well of PBS. Then, 100 μl of BCIP/NBTplus substrate solution (Wako) was added per well, which was left in a dark place until spots became visible. When the spots became visible to the naked eye, the plate was washed sufficiently in distilled water. After checking that a membrane in the plate is dry, the number of spots were measured using ELISPot™ reader (AID Autoimmun Diagnostika GmbH), and the data were analyzed with AID software version 3.1 (AID).

[2] = system: A27L antigen-specific CD8+ CTLs; assay: Induction of A27L-specific CD8+ CTLs by dendritic cells co-pulsed with ZOMETA and apoptotic melanoma cells
Experimental: From a healthy donor, 200 ml of peripheral blood was collected. Mononuclear cells were obtained from this peripheral blood of the healthy donor. At this time, a mononuclear cell layer was collected using a density gradient solution for blood cell separation. After several times of washing in order to remove platelets, etc. from the collected cells, CD14-positive cells were isolated as monocytes with MACS. From the obtained dendritic cell precursors, differentiation induction of dendritic cells was carried out. The medium was prepared by adding 500 U/ml of GM-CSF (IMMUNEX) and 500 U/ml of IL-4 (Osteogenetics GmbH) to AIM-V supplemented with 10% FBS. On day 5 to day 7 after starting culture, immature dendritic cells were obtained.
A cancer cell line derived from MART-1-positive melanoma was collected, placed in a 15 ml tube (BD Falcon) and centrifuged at 1500 rpm for 5 minutes. […]
Using the number of all lymphocytes that were proliferated 7, 11 and 14 days after the start of co-culture, a labeled antibody and an antigen-specific tetramer, the ratio of the antigen-specific CD8+ CTLs in all of the lymphocytes was measured with a flow cytometer. […] The cells were measured using EPICS XL.MCL, and the results of measurement were analyzed using EPICS 32.

A27L-specific CD8+ CTLs [3] = assay: Induction of A27L-specific CD8+ CTLs by washed pulsed immature dendritic cells co-cultured with lymphocytes (tetramer flow cytometry)
Experimental: as §1
After about 12 hours of culture, part of the activated dendritic cells that were co-pulsed with ZOMETA™ and the antigenic peptides were collected, placed in a 15 ml tube (BD Falcon) and centrifuged at 1500 rpm for 5 minutes. The resultant dendritic cells in the form of pellets were suspended in 10 ml of an AIM-V medium supplemented with 10% FBS and centrifuged at 1500 rpm for 5 minutes, followed by washing. The washing operation was repeated twice. The dendritic cells collected in this manner were used as stimulating cells. In other words, the activated dendritic cells that were co-pulsed with bisphosphonate and the disease antigenic peptides, the dendritic cells that were pulsed with either of them and the dendritic cells that were not pulsed with any of them were used as stimulating cells. […]
After dyeing in a shielded state at room temperature for 15 minutes, an anti-CD8 antibody that was labeled with FITC (BD Pharmingen) was added, followed by dyeing in a shielded state at 4° C. for 15 minutes. […] The cells were measured using EPICS XL.MCL, and the results of measurement were analyzed using EPICS 32.

Q: With O=P(O)(O)C(O)(Cn1ccnc1)P(=O)(O)O [ZOMETA ™, zoledronate sodium hydrate] as the compound, how does the “The number of CTLs” value (BMLF1-specific CD8+ CTLs; ZOMETA 0.01 μM) read?
A: 10845

Q: What about the “The total number of cells” value (BMLF1-specific CD8+ CTLs; ZOMETA 0.01 μM) of the same compound?
A: 2.01 × 10^6

Q: What about the “Ratio of CTLs (%)” value (BMLF1-specific CD8+ CTLs; ZOMETA 0.01 μM) of the same compound?
A: 0.54%

Q: What about the “The number of CTLs” value (BMLF1-specific CD8+ CTLs; ZOMETA 0.1 μM) of the same compound?
A: 12130

Q: And the “The total number of cells” value (BMLF1-specific CD8+ CTLs; ZOMETA 0.1 μM)?
A: 2.17 × 10^6

Q: And the “Ratio of CTLs (%)” value (BMLF1-specific CD8+ CTLs; ZOMETA 0.1 μM)?
A: 0.56%

Q: And the “The number of CTLs” value (BMLF1-specific CD8+ CTLs; ZOMETA 1 μM)?
A: 11389

Q: What about the “The total number of cells” value (BMLF1-specific CD8+ CTLs; ZOMETA 1 μM) of the same compound?
A: 1.96 × 10^6

Q: And the “Ratio of CTLs (%)” value (BMLF1-specific CD8+ CTLs; ZOMETA 1 μM)?
A: 0.58%

Q: And the “The number of CTLs” value (BMLF1-specific CD8+ CTLs; ZOMETA 5 μM)?
A: 21266

Q: And the “The total number of cells” value (BMLF1-specific CD8+ CTLs; ZOMETA 5 μM)?
A: 2.84 × 10^6

Q: What about the “Ratio of CTLs (%)” value (BMLF1-specific CD8+ CTLs; ZOMETA 5 μM) of the same compound?
A: 0.75%

Q: And the “The number of CTLs” value (BMLF1-specific CD8+ CTLs; ZOMETA 20 μM)?
A: 21133

Q: What about the “The total number of cells” value (BMLF1-specific CD8+ CTLs; ZOMETA 20 μM) of the same compound?
A: 2.94 × 10^6

Q: What about the “Ratio of CTLs (%)” value (BMLF1-specific CD8+ CTLs; ZOMETA 20 μM) of the same compound?
A: 0.72%

Q: What about the “ratio of antigen-specific CD8+ CTLs versus dendritic cells pulsed with peptides alone” value (BMLF1-specific CD8+ CTLs; co-pulse ZOMETA 0 to 20 μM and BMLF1) of the same compound?
A: about 3.2 times

Q: And the “ratio of antigen-specific CD8+ CTLs versus MDA-MB/CD80 cells pulsed with peptides alone” value (A27L-specific CD8+ CTLs [1])?
A: about 6 times

Q: What about the “The number of IFN-γ producing cells in all of 2500 lymphocytes” value (“The number of IFN-γ producing cells” below) (IFN-γ producing cells; Donor A, Lymphocytes + dendritic cells pulsed with peptides (re-stimulation)) of the same compound?
A: 100

Q: What about the “The number of IFN-γ producing cells” value (IFN-γ producing cells; Donor A, Lymphocytes alone (no re-stimulation)) of the same compound?
A: 4

Q: What about the “The number of IFN-γ producing cells” value (IFN-γ producing cells; Donor B, Lymphocytes + dendritic cells pulsed with peptides (re-stimulation)) of the same compound?
A: 50

Q: What about the “The number of IFN-γ producing cells” value (IFN-γ producing cells; Donor B, Lymphocytes alone (no re-stimulation)) of the same compound?
A: 0

Q: And the “increase of tetramer-positive cells by the addition of ZOMETA” value ([2]; day 11, versus apoptotic cells alone)?
A: about 15 times

Q: And the “Ratio of CD8+ CTLs (%), A27L-specific” value ([2]; day 11 of culture, ZOMETA 0.01 μM, apoptotic MART-1-positive melanoma cells)?
A: 0.14%

Q: And the “ratio of antigen-specific CD8+ CTLs versus dendritic cells pulsed with peptides alone” value (A27L-specific CD8+ CTLs [3]; co-pulse 0.01 μM ZOMETA and 2 μg/ml A27L)?
A: about 4 times

Q: What about the “Ratio (%) of disease antigen-specific CD8+ CTLs” value (A27L-specific CD8+ CTLs [3]; immature dendritic cells, ZOMETA 0.01 μM and/or A27L 2 μg/ml, 7 days co-culture) of the same compound?
A: 0.00%

Source: patent publication US8609410B2 (priority 2005, dated 2013)
